According to patent publication US11083728B2, “Compositions of cyclin dependent kinase 7 (CDK7) inhibitor” (Syros Pharmaceuticals, Inc., priority 2017, dated 2021):
In brackets after ≈: the same amount, converted by molar mass. Read-outs that look alike come from different tables or passages of the source.

How the values were obtained:
Format in all cases: physicochemical
[1] = Infusion solution stability in 0.9% Sodium Chloride for Injection; settings: for Change in concentration: initial vs 4 hours at ambient temperature and light
Procedure: For the infusion solution stability study, duplicate dilutions of the reconstituted Compound 1 in 0.9% Sodium Chloride for Injection, LISP to provide the low (0.01 mg/mL) and high dose (0.6 mg/mL) were prepared. Infusion bags and sets used were made of polyolefin and polyethylene-lined respectively. To bracket the concentrations to be used in the clinic, two concentrations (0.01 mg/mL and 0.6 mg/mL of Compound 1) representing lowest and highest doses were selected. The stability of low and high dose infusion bag dilution is summarized in Table 3 and Table 4, respectively.

[2] = Stability of reconstituted solution of the particulate composition (5 mg/mL)
Procedure: The stability of the reconstituted solution of the particulate composition of Compound 1 of Example 1 was determined up to 4 hours. Duplicate vials of Compound 1 were reconstituted each with 5 mL of Water for Injection, USP.

[3] = Equilibrium solubility in various pharmaceutical excipients
[4] = Long-term storage stability in co-solvents PEG 300 and PEG 400
[5] = infusion solution 0.01 mg/mL, 4 hours
[6] = infusion solution 0.01 mg/mL, Initial
[7] = infusion solution 0.6 mg/mL, 4 hours
[8] = infusion solution 0.6 mg/mL, Initial
[9] = reconstituted solution 5 mg/mL, 4 hours
[10] = reconstituted solution 5 mg/mL, Initial
[11] = reconstituted solution, initial vs 4 hours at room temperature and light

## CN(C)C/C=C/C(=O)Nc1ccc(C(=O)N[C@@]2(C)CCC[C@@H](Nc3ncc(Cl)c(-c4c[nH]c5ccccc45)n3)C2)nc1 [Compound 1, N-((1S,3R)-3-(5-chloro-4-(1H-indol-3-yl)pyrimidin-2-ylamino)-1-methylcyclohexyl)-5-((E)-4-(dimethylamino)but-2-enamido)picolinamide]
[1]; high dose (0.6 mg/mL)
  Change in concentration: no changes
[1]; [5]
  Appearance: Yellowish Clear solution
  Compound 1 concentration: 0.0099 mg/mL
  pH: 8.1
[1]; [6]
  Appearance: Yellowish Clear solution
  Compound 1 concentration: 0.0096 mg/mL
  pH: 7.6
[1]; [7]
  Appearance: Yellowish Clear
  Compound 1 concentration: 0.551 mg/mL
  Impurities, RRT 1.03: RRT 1.03 = 0.71% a/a
  Impurities, RRT 1.22: RRT 1.22 = 0.06% a/a
  Impurities, RRT 1.43: RRT = 1.43 = 0.51% a/a
  Impurities, RRT 1.60: RRT = 1.60 = 0.08% a/a
  Impurities, Total: Total = 1.4% a/a
  pH: 3.6
[1]; [8]
  Appearance: Yellowish Clear
  Compound 1 concentration: 0.552 mg/mL
  Impurities, RRT 1.03: RRT 1.03 = 0.71% a/a
  Impurities, RRT 1.22: RRT 1.22 = 0.06% a/a
  Impurities, RRT 1.43: RRT = 1.43 = 0.51% a/a
  Impurities, RRT 1.60: RRT = 1.60 = 0.08% a/a
  Impurities, Total: Total = 1.4% a/a
  pH: 3.6
[1]; low dose (0.01 mg/mL)
  Change in concentration: no changes
[1]; low dose dilution (0.01 mg/mL), initial vs 4 hours
  Change in pH: increase
[2]; [9]
  Compound 1 concentration: 4.48 mg/mL
  Impurities, RRT 1.04: RRT 1.04 = 0.70% a/a
  Impurities, RRT 1.23: RRT 1.23 = 0.07% a/a
  Impurities, RRT 1.44: RRT 1.44 = 0.59% a/a
  Impurities, RRT 1.47: RRT 1.47 = 0.42% a/a
  Impurities, RRT 1.61: RRT 1.61 = 0.09% a/a
  Impurities, Total: Total = 1.9% a/a
  pH: 3.2
[2]; reconstituted solution 5 mg/mL, 4 hours, room temperature and light
  Appearance: Yellowish Clear solution
[2]; [10]
  Compound 1 concentration: 4.75 mg/mL
  Impurities, RRT 1.04: RRT 1.04 = 0.71% a/a
  Impurities, RRT 1.23: RRT 1.23 = 0.10% a/a
  Impurities, RRT 1.46: RRT 1.46 = 0.55% a/a
  Impurities, RRT 1.48: RRT1.48 = 0.4 % a/a
  Impurities, RRT 1.62: RRT1.62 = 0.0 % a/a
  Impurities, Total: Total = 1.9% a/a
  pH: 3.2
[2]; reconstituted solution 5 mg/mL, Initial, n = 2
  Appearance: Yellowish Clear solution
[2]; [11]
  Change in appearance and pH: unchanged
  Change in concentration of Compound 1: slight decrease
  Change in impurities: no measurable change
[3]; 50 mM Borate pH 10
  solubility: <LOQ
[3]; 50 mM KCl, pH 2, simulated gastric fluid, thermodynamic from solid, 50 mM KCl, pH 2, read-out: Solubility
  solubility: 3600 µg/mL (≈ 6.13 mM)
[3]; 50 mM Phosphate pH 8
  solubility: <LOQ
[3]; 50 mM citrate, pH 4, aqueous buffer, thermodynamic from solid, 50 mM Citrate pH 4, read-out: Solubility
  solubility: 3.7 µg/mL (≈ 0.0063 mM)
[3]; 50 mM phosphate buffer, pH 6, aqueous buffer, thermodynamic from solid, 50 mM Phosphate pH 6, read-out: Solubility
  solubility: 1.9 µg/mL (≈ 0.00324 mM)
[3]; 10% Captisol in phosphate buffer, pH 5.5, aqueous with cosolvent or surfactant or cyclodextrin, thermodynamic from solid, 10% Captisol, pH 5.5 (phosphate buffer), read-out: Solubility
  solubility: 4600 µg/mL (≈ 7.83 mM)
[3]; 20% Captisol in phosphate buffer, pH 5.5, aqueous with cosolvent or surfactant or cyclodextrin, thermodynamic from solid, 20% Captisol, pH 5.5 (phosphate buffer), read-out: Solubility
  solubility: 5900 µg/mL (≈ 10 mM)
[3]; 20% Captisol, 0.1% Tween 80, pH adjusted with HCl, pH 3.5, aqueous with cosolvent or surfactant or cyclodextrin, thermodynamic from solid, 20% Captisol, 0.1% Tween 80, pH 3.5, (HCl), read-out: Solubility
  solubility: > 10000 µg/mL
[3]; Captisol, especially with acidic conditions (pH 3-4) and Tween 80
  Solubility (in words): good solubility
[3]; PEG 300
  solubility: >19400 µg/mL
[3]; PEG 300, organic solvent or mixture, thermodynamic from solid, PEG 300, read-out: Solubility
  solubility: > 19000 µg/mL
[3]; PEG 400
  solubility: >20800 µg/mL
[3]; PEG 400, organic solvent or mixture, thermodynamic from solid, PEG 400, read-out: Solubility
  solubility: > 19000 µg/mL
[3]; Sorensen phosphate Buffer
  solubility: <LOQ
[3]; Tween 80, aqueous with cosolvent or surfactant or cyclodextrin, thermodynamic from solid, Tween 80, read-out: Solubility
  solubility: 18300 µg/mL (≈ 31.2 mM)
[3]; dehydrated alcohol, organic solvent or mixture, thermodynamic from solid, Dehydrated Alcohol, read-out: Solubility
  solubility: 3600 µg/mL (≈ 6.13 mM)
[3]; in water
  Solubility (in words): poorly soluble
[3]; propylene glycol, organic solvent or mixture, thermodynamic from solid, Propylene Glycol, read-out: Solubility
  solubility: 4000 µg/mL (≈ 6.81 mM)
[3]; t-butanol, organic solvent or mixture, thermodynamic from solid, t-Butanol, read-out: Solubility
  solubility: 3200 µg/mL (≈ 5.45 mM)
[3]; water, thermodynamic from solid, Water, read-out: Solubility
  solubility: 0.12 µg/mL (≈ 0.000204 mM)
[4]
  Stability on long-term storage: unstable
